Results: US20240150365A1 (Hotspot Therapeutics, Inc., priority 2022, published 2024)
Where two headings read alike, the source gives them in different places.

Tests used:
MALT1 = target: T1, MALT1 (Homo sapiens, UniProt Q9UDY8); test: MALT-1 Fluorogenic Peptide Cleavage Assay (MALT1 inhibition assay); assay type: biochemical; settings: Avi-tagged FL MALT-1, Ac-LRSR-AMC peptide substrate, 30 min pre-incubation, 90 min reaction
T1 construct: Avi-tagged FL MALT-1 (Pharmaron, stored at −70° C.); Avi tag
T1 sequence (Q9UDY8 1-824): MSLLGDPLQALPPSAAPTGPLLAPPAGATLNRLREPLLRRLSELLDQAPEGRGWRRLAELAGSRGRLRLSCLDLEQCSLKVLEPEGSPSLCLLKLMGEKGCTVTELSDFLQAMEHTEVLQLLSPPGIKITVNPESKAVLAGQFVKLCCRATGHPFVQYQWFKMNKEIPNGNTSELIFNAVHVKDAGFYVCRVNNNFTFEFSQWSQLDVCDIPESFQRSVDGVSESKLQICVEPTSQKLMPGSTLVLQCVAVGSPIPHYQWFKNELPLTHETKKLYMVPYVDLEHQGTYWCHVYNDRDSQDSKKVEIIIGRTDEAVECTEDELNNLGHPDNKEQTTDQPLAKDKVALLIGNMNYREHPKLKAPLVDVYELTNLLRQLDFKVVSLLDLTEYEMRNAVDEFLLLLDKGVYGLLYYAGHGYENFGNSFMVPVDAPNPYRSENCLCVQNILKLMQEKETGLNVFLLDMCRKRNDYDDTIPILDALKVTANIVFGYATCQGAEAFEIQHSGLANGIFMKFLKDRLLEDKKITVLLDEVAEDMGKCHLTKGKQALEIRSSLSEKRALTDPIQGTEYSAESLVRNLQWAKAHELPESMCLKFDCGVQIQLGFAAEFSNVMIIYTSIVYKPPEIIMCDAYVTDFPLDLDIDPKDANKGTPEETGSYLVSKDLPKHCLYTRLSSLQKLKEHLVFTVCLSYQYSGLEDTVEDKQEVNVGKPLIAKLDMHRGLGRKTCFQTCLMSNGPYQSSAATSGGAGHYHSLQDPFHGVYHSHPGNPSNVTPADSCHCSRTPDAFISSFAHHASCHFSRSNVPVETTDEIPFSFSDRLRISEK
Protocol: Inhibition of MALT1 activity by the presence of small molecules was evaluated using MALT-1 Fluorogenic Peptide Cleavage Assay. The assay utilizes a quenched AMC-labelled peptide that contains the MALT-1 recognition sequence and cleavage site (LRSR). MALT-1 mediated cleavage of the peptide relieves the quenching and leads to an increase in fluorescence at excitation (342 nm) and emission (441 nm). The following reagents were obtained commercially and used to prepare standard reagent formulations as further described below: […] The standard reagent formulations used in this assay were prepared and stored as follows. A 1.1 M solution of sodium citrate (161.3 g, 500 mL) was prepared and stored at room temperature. A 10% (w/v) CHAPS solution (2.0 g, 20 mL) was prepared and stored at 4° C. A 500 mM HEPES solution having pH of 6.89 was prepared from 200 mL of a 1 M HEPES solution having a pH of 7.5 using concentrated hydrochloric acid and brought to a final volume of 400 mL with […]® H2O. The substrate, 10 mM Ac-LRSR-AMC Peptide, was prepared (10 mg, 1.370 mL DMSO) and stored at -20° C. Compounds were plated to provide a 2% DMSO final concentration using a ProxiPlate-384 Plus F Black 384-shallow well microplate. The assay-ready plates were equilibrated to room temperature. […] DMSO was added only when compound plates had not been DMSO-backfilled to 2%. MALT-1 was thawed and kept on ice. Peptide substrate was thawed on the bench under ambient conditions. A MALT-1 enzyme working stock was prepared from Avi-tagged FL MALT-1 (40 nM in a prepared reagent volume of 16.5 μL) and the reaction buffer (13.0 mL). MALT1 working stock (5 μL) was added to each well of the microplate. MALT-1 was pre-incubated with compounds for 30 minutes at room temperature. […] The plates were covered and incubated on the bench at room temperature for 90 minutes. Fluorescence intensity was determined using a CLARIOstar microplate reader (BMG LABTECH) using the optimised AMC mode. Before taking readings, a 70% gain was applied on the neutral control well. Compound data were normalised to % Inhibition and used to plot sigmoidal concentration response curves to yield various parameters including IC50. […] Compounds in which an IC50 was not measured are designated as “N/A”.

NF-kB = NF-kB reporter assay in Jurkat cells stimulated with aCD3/aCD28/PMA; assay type: cell-based; settings: Homo sapiens, Jurkat, read-out: NF-kB Reporter Assay IC50
Protocol: Jurkat cells were maintained in complete RPMI 1640 media supplemented with 10% FBS. Prior to the assay, 120 nL of the serial diluted compound was added in each well of 384-well flat bottom white plate (Corning #3570) by using liquid handler Echo550. Jurkat cells were harvested by centrifugation at 120 g for 10 min and resuspended in fresh RPMI 1640 media without serum. 30 μL of cells (25,000 cells) were seeded in each well of 384-well plate containing compound. After 1 hr incubation at 37° C. in a 5% CO2 incubator, 10 μL of diluted aCD3/aCD28/PMA (final concentration at 5 μg/mL, 5 μg/mL and 0.03 μg/mL, respectively) in RPMI 1640 without serum were added to each well. After incubation at 37° C. in 5% CO2 for 4 hr, 30 μL of One-Glo reagent (Promega #E6120) was added into each well. The plate was left at room temperature for 5 min and the signal was measured on EnVision (PerkinElmer).
Compounds in which an IC50 was not measured are designated as “N/A”.

[1] = Jurkat cells, 1 hr compound incubation, aCD3/aCD28/PMA stimulation 4 hr, One-Glo readout

IC50 (MALT1) [nM] | IC50 (NF-kB; [1]) [nM] | SMILES | IC50 (NF-kB) [nM]
400 to 1000 | < 400 | Cn1ncc2cccc(NS(=O)(=O)c3ccc(-n4cc(C(F)F)cn4)nc3)c21 [Example I-50, 6-[4-(Difluoromethyl)Pyrazol-1-Yl]-N-(1-Methylindazol-7-yl)Pyridine-3-Sulfonamide] | –
1000 to 2500 | < 400 | Cn1ncc2cccc(NS(=O)(=O)c3ccc(-n4ccc(C(F)F)n4)nc3)c21 [Example I-51, 6-[3-(Difluoromethyl)Pyrazol-1-Yl]-N-(1-Methylindazol-7-yl)Pyridine-3-Sulfonamide] | –
> 2500 | 1000 to 2500 | Cc1cnn(-c2ccc(S(=O)(=O)Nc3cccc4cnn(C)c34)cn2)n1 [Example I-52, N-(1-Methyl-1H-Indazol-7-yl)-6-(4-Methyl-2H-1,2,3-Triazol-2-yl)Pyridine-3-Sulfonamide] | –
> 2500 | 400 to 1000 | Cc1cn(-c2ccc(S(=O)(=O)Nc3cccc4cnn(C)c34)cn2)nn1 [Example I-53, 6-(4-Methyl-1H-1,2,3-Triazol-1-yl)-N-(1-Methyl-1H-Indazol-7-yl)Pyridine-3-Sulfonamide] | –
> 2500 | < 400 | Cn1ncc2cccc(NS(=O)(=O)c3ccc(-n4cc(C5(F)CC5)cn4)nc3)c21 [Example I-55] | –
> 2500 | < 400 | Cn1ncc2cccc(NS(=O)(=O)c3ccc(-n4cc(C5(O)CC5)cn4)nc3)c21 [Example I-56, 6-(4-(1-hydroxycyclopropyl)-1H-pyrazol-1-yl)-N-(1-methyl-1H-indazol-7-yl)pyridine-3-sulfonamide] | –
> 2500 | < 400 | Cc1cnn(-c2ccc(S(=O)(=O)Nc3cccc4cnn(C)c34)cn2)c1C [Example I-57, 6-(4,5-Dimethylpyrazol-1-yl)-N-(1-Methylindazol-7-yl)Pyridine-3-Sulfonamide] | –
1000 to 2500 | < 400 | Cc1cn(-c2ccc(S(=O)(=O)Nc3cccc4cnn(C)c34)cn2)nc1C [Example I-58, 6-(3,4-Dimethylpyrazol-1-yl)-N-(1-Methylindazol-7-yl)Pyridine-3-Sulfonamide] | –
> 2500 | < 400 | Cc1nn(-c2ccc(S(=O)(=O)Nc3cccc4cnn(C)c34)cn2)c(C)c1C [Example I-59, N-(1-Methyl-1H-Indazol-7-yl)-6-(3,4,5-Trimethyl-1H-Pyrazol-1-yl)Pyridine-3-Sulfonamide] | –
> 2500 | < 400 | Cn1ncc2cccc(NS(=O)(=O)c3ccc(-n4nccc4C4CC4)nc3)c21 [Example I-62, 6-(5-Cyclopropylpyrazol-1-yl)-N-(1-Methylindazol-7-yl)Pyridine-3-Sulfonamide] | –
< 400 | < 400 | Cc1ccc2cnn(C)c2c1NS(=O)(=O)c1ccc(-c2cc(C(F)(F)F)n[nH]2)nc1 [Example I-63, N-(1,6-dimethyl-1H-indazol-7-yl)-6-(5-(trifluoromethyl)-1H-pyrazol-3-yl)pyridine-3-sulfonamide] | –
> 2500 | > 2500 | Cn1nnc2cccc(NS(=O)(=O)c3ccc(-n4cc(C(F)(F)F)cn4)nc3)c21 [Example I-64, N-(1-Methyl-1H-Benzo[D][1,2,3]Triazol-7-yl)-6-(4-(Trifluoromethyl)-1H-Pyrazol-1-yl)Pyridine-3-Sulfonamide] | –
1000 to 2500 | < 400 | Cc1cc(S(=O)(=O)Nc2cccc3cnn(C)c23)cnc1-n1cc(C(F)(F)F)cn1 [Example I-65, 5-Methyl-N-(1-Methyl-1H-Indazol-7-yl)-6-(4-(Trifluoromethyl)-1H-Pyrazol-1-yl)Pyridine-3-Sulfonamide] | –
< 400 | < 400 | [2H]C([2H])([2H])Oc1ccc2cnn(C)c2c1NS(=O)(=O)c1ccc(-n2cc(C(F)(F)F)cn2)nc1 [Example I-68, N-(6-(Methoxy-D3)-1-Methyl-1H-Indazol-7-yl)-6-(4-(Trifluoromethyl)-1H-Pyrazol-1-yl)Pyridine-3-Sulfonamide] | –
< 400 | < 400 | [2H]C([2H])([2H])c1ccc2cnn(C)c2c1NS(=O)(=O)c1ccc(-n2cc(C(F)(F)F)cn2)nc1 [Example I-69, N-(1-Methyl-6-(Methyl-Ds)-1H-Indazol-7-yl)-6-(4-(Trifluoromethyl)-1H-Pyrazol-1-yl)Pyridine-3-Sulfonamide] | –
< 400 | < 400 | [2H]C([2H])(C)c1ccc2cnn(C)c2c1NS(=O)(=O)c1ccc(-n2cc(C(F)(F)F)cn2)nc1 [Example I-70, N-(6-(Ethyl-1,1-D2)-1-Methyl-1H-Indazol-7-yl)-6-(4-(Trifluoromethyl)-1H-Pyrazol-1-yl)Pyridine-3-Sulfonamide] | –
1000 to 2500 | < 400 | Cc1cc(NS(=O)(=O)c2ccc(-n3cc(C(F)(F)F)cn3)nc2)c2c(cnn2C)c1 [Example I-71, N-(1,5-Dimethyl-1H-Indazol-7-yl)-6-(4-(Trifluoromethyl)-1H-Pyrazol-1-yl) Pyridine-3-Sulfonamide] | –
1000 to 2500 | < 400 | COc1cc(NS(=O)(=O)c2ccc(-n3cc(C(F)(F)F)cn3)nc2)c2c(cnn2C)c1 [Example I-72, N-(5-Methoxy-1-Methylindazol-7-yl)-6-[4-(Trifluoromethyl)Pyrazol-1-Yl]Pyridine-3-Sulfonamide] | –
400 to 1000 | 400 to 1000 | Cn1ncc2cc(F)cc(NS(=O)(=O)c3ccc(-n4cc(C(F)(F)F)cn4)nc3)c21 [Example I-73, N-(5-Fluoro-1-Methylindazol-7-yl)-6-[4-(Trifluoromethyl)Pyrazol-1-Yl]Pyridine-3-Sulfonamide] | –
< 400 | < 400 | [2H]C([2H])([2H])n1ncc2ccc(OC)c(NS(=O)(=O)c3ccc(-n4cc(C(F)(F)F)cn4)nc3)c21 [Example I-75, N-(6-Methoxy-1-(Methyl-D3)-1H-Indazol-7-yl)-6-(4-(Trifluoromethyl)-1H-Pyrazol-1-yl)Pyridine-3-Sulfonamide] | –
> 2500 | < 400 | Cn1ncc2cccc(NS(=O)(=O)c3ccc(-c4cc5ccccc5[nH]4)nc3)c21 [Example I-76, 6-(1H-Indol-2-yl)-N-(1-Methyl-1H-Indazol-7-yl)Pyridine-3-Sulfonamide] | –

SMILES | IC50 (MALT1) [nM] | IC50 (NF-kB; [1]) [nM] | IC50 (NF-kB) [nM]
COc1ncc2cnn(C)c2c1NS(=O)(=O)c1ccc(-n2cc(C(F)(F)F)cn2)nc1 [Example I-74, N-(6-methoxy-1-methyl-1H-pyrazolo[4,3-c]pyridin-7-yl)-6-(4-(trifluoromethyl)-1H-pyrazol-1-yl)pyridine-3-sulfonamide] | < 400 | – | < 400
